The record followed here is patent US4613596A, “Amino methyl furans and pharmaceutical compositions” (Magis Farmaceutrici s.r.l., priority 1982, dated 1986).

Data set [1] is described as follows: Acute toxicity (LD50) in mouse. The class given is in vivo. Conditions: in vivo, 10 days observation. Here is the method:
(§1) Acute toxicity was studied in male and female mice of Swiss stock, and in male and female albino rats of Wistar stock, by administering the active principle orally, intravenously and intramuscularly.
(§2) For each method of administration, doses in geometrical progression were administered to 10 animals for each dose over a period of observation of 10 days.
(§3) On termination of the period of observation, the LD50 and the relative reliability limits were calculated by the method of Litchfield and Wilcoxon (Pharmacol. Exp. Ther., 96-19, 1949).

Data set [2] is described as follows: Acute toxicity (LD50) in rat. Format: in vivo. Conditions: in vivo, 10 days observation. Here is the method:
as §1, §2, §3

A further data set deals with mice of Swiss stock. Briefly: Acute toxicity (LD50) in mouse. The class given is in vivo. The conditions noted are these: 10 days observation; for LD50, mouse, intram. admin.: intramuscular; for LD50, mouse, intrav. admin.: intravenous; for LD50, mouse, oral admin.: Litchfield and Wilcoxon. Here is the method: as §1, §2, §3
Data set [3] has as its system albino rats of Wistar stock. Briefly: Acute toxicity (LD50) in rat. The class given is in vivo. The conditions noted are these: 10 days observation; for LD50, rat, intram. admin.: intramuscular; for LD50, rat, intrav. admin.: intravenous. Here is the method: as §1, §2, §3
The subject of data set [4] is gastric ulcers induced by the ligature of the pylorus. Briefly: Gastric ulcers induced by ligature of the pylorus. Format: in vivo, rat (Sprague Dawley). Conditions: oral, one hour after operation; compounds and ranitidine 1, 3, 10, 30 mg/kg; cimetidine 3, 10, 30, 100 mg/kg. Here is the method:
To study the effect of the new compounds according to the present invention, 50 male and female rats of Sprague Dawley stock weighing approximately 200 grams were used for each compound examined.
The animals, under diet, were subjected to legature of the pylorus.
One hour after this operation, the animals were treated orally either with doses of 1, 3, 10 and 30 mg/kg of the examined compounds, or with doses of 3, 10, 30 and 100 mg/kg of cimetidine, or with doses of 1, 3, 10 and 30 mg/kg of ranitidine.

Setting [5] is: im, intramuscular, read-out: LD50, mouse, intram. admin.
Setting [6] is: intravenous, read-out: LD50, mouse, intrav. admin.
Setting [7] is: oral, Litchfield and Wilcoxon, read-out: LD50, mouse, oral admin.
Setting [8] is: im, intramuscular, read-out: LD50, rat, intram. admin.
Where [9] appears, read: intravenous, read-out: LD50, rat, intrav. admin.
Where [10] appears, read: oral, read-out: LD50, rat, oral admin.

For orientation: LD50 means the dose at which mortality reaches 50%.

`CN(C)Cc1ccc(CSCCNC(=C[N+](=O)[O-])N2CCCCC2)o1`: the LD50 at 240 h in data set [1] (setting [5]) worked out at 300 mg/kg; in data set [1] (setting [6]), 90 mg/kg; in data set [1] (setting [7]) it was 2600 mg/kg; in data set [2] (setting [8]), 2100 mg/kg; in data set [2] (setting [9]) it was 100 mg/kg.

As for `CN(C)Cc1ccc(CSCCNC(=C[N+](=O)[O-])N[C@H]2C[C@H]3CC[C@@H]2C3)o1` (relative stereo) [AU/019], the LD50 at 240 h in data set [1] (setting [5]) turned out to be 300 mg/kg; in data set [1] (setting [6]) it was 100 mg/kg; in data set [1] (setting [7]), 2600 mg/kg; in data set [2] (setting [8]) it was 2100 mg/kg; in data set [2] (setting [9]), 120 mg/kg.

Consider `CC1CCN(C(=C[N+](=O)[O-])NCCSCc2ccc(CN(C)C)o2)CC1` [AU/002, 1-N-[2-[[5-[(dimethylamino)methyl]furfuryl]thio]ethyl]amino-1-(4-methyl-piperidino)-2-nitro-ethene], for which the LD50 at 240 h in data set [1] (setting [5]) amounted to 320 mg/kg; in data set [1] (setting [6]), 100 mg/kg; in data set [1] (setting [7]), 2700 mg/kg; in data set [2] (setting [8]), 2000 mg/kg; in data set [2] (setting [9]), 100 mg/kg.

`CCN1CCCC(NC(=C[N+](=O)[O-])NCCSCc2ccc(CN(C)C)o2)C1` (stereo not drawn) [AU/003]: the median lethal dose (LD50) at 240 h in data set [1] (setting [5]) was 300 mg/kg; in data set [1] (setting [6]), 90 mg/kg; in data set [1] (setting [7]), 2800 mg/kg; in data set [2] (setting [8]), 2200 mg/kg; in data set [2] (setting [9]) it was 100 mg/kg.

In the case of `CN(C)Cc1ccc(CSCCNC(=C[N+](=O)[O-])N2CCN(CCO)CC2)o1` [AU/004, 1-N-[2-[[5-[(dimethylamino)methyl]furfuryl]thio]ethyl]-amino-1-4-(2-hydroxyethyl)-1-piperazino ethene], the LD50 at 240 h in data set [1] (setting [5]) turned out to be 300 mg/kg; in data set [1] (setting [6]) it was 95 mg/kg; in data set [1] (setting [7]), 2700 mg/kg; in data set [2] (setting [8]) it was 2000 mg/kg; in data set [2] (setting [9]), 110 mg/kg.

`CN(C)Cc1ccc(CSCCNC(=C[N+](=O)[O-])N2CCC(Cc3ccccc3)CC2)o1` [AU/005, 1-N-[2-[[5-[(dimethylamino)methyl]furfuryl]thio]ethyl]-amino-1-(4-benzyl-piperidino)-2-nitroethene]: the 50% lethal dose (LD50) at 240 h in data set [1] (setting [5]) came to 300 mg/kg; in data set [1] (setting [6]), 95 mg/kg; in data set [1] (setting [7]), 2700 mg/kg; in data set [2] (setting [8]), 2100 mg/kg; in data set [2] (setting [9]), 110 mg/kg; in data set [2] (setting [10]), 5500 mg/kg.

Consider `CN(C)Cc1ccc(CSCCNC(=C[N+](=O)[O-])N2CCN(Cc3ccccc3)CC2)o1` [AU/006, 1-N-[2-[[5-[(dimethylamino)methyl]furfuryl]thio]ethyl]amino-1-(4-benzyl-piperazino)-2-nitroethene], for which the LD50 at 240 h was 300 mg/kg in data set [1] (setting [5]); 90 mg/kg in data set [1] (setting [6]); 2700 mg/kg in data set [1] (setting [7]); 2100 mg/kg in data set [2] (setting [8]); 100 mg/kg in data set [2] (setting [9]).

Consider `CN(C)Cc1ccc(CSCCNC(=C[N+](=O)[O-])N2CC2)o1` [AU/007, 1-N-[2-[[5-[(dimethylamino)methyl]furfuryl]thio]ethyl]amino-1-ethyleneimino-2-nitroethene], for which the LD50 at 240 h in data set [1] (setting [5]) was 310 mg/kg; in data set [1] (setting [6]) it was 100 mg/kg; in data set [1] (setting [7]) it was 2800 mg/kg; in data set [2] (setting [8]), 2100 mg/kg; in data set [2] (setting [9]) it was 100 mg/kg.

With `CN(C)Cc1ccc(CSCCNC(=C[N+](=O)[O-])N2CCC2)o1` [AU/008, 1-N-[2-[[5-[(dimethylamino)methyl]furfuryl]thio]ethyl]amino-1-cyclopropyleneimino-2-nitroethene], the LD50 at 240 h worked out at 310 mg/kg in data set [1] (setting [5]); 100 mg/kg in data set [1] (setting [6]); 2600 mg/kg in data set [1] (setting [7]); 2200 mg/kg in data set [2] (setting [8]); 100 mg/kg in data set [2] (setting [9]).

As to `CN(C)Cc1ccc(CSCCNC(=C[N+](=O)[O-])NC2CCCCC2)o1` [AU/009, N-[2-[[5-[(dimethylamino)methyl]furfuryl]thio]ethyl]-N'-(cyclohexyl)-2-nitro-1,1-ethenediamine], the 50% lethal dose (LD50) at 240 h in data set [1] (setting [5]) came out at 300 mg/kg; in data set [1] (setting [6]), 100 mg/kg; in data set [1] (setting [7]), 2600 mg/kg; in data set [2] (setting [8]), 2200 mg/kg; in data set [2] (setting [9]), 110 mg/kg.

As for `CN(C)Cc1ccc(CSCCNC(=C[N+](=O)[O-])NC2=CCC=CC2)o1` [AU/010, N-[2-[[5-[(dimethylamino)methyl]furfuryl]thio]ethyl]-N'-(1,4-ciclohexadienyl)-2-nitro-1,1-ethenediamine], in the data set with mice of Swiss stock, the “LD50, mouse, intram. admin.” value is 310 mg/kg; the “LD50, mouse, intrav. admin.” value is given as 95 mg/kg; the “LD50, mouse, oral admin.” value was found to be 2700 mg/kg. Besides, in data set [3], the “LD50, rat, intram. admin.” value stood at 2200 mg/kg and the “LD50, rat, intrav. admin.” value was 110 mg/kg.

For `CN(C)Cc1ccc(CSCCNC(=C[N+](=O)[O-])NCC2=CCC=CC2)o1` [AU/011, N-[2-[[5-[(dimethylamino)methyl]furfuryl]thio]ethyl]-N'-(1,4-cyclohexadienyl-2-methyl)-2-nitro-1,1-ethenediamine], in the data set on mice of Swiss stock, the “LD50, mouse, intram. admin.” value is given as 310 mg/kg; the “LD50, mouse, intrav. admin.” value came to 90 mg/kg; the “LD50, mouse, oral admin.” value came out at 2700 mg/kg. In data set [3], the “LD50, rat, intram. admin.” value is given as 2100 mg/kg and the “LD50, rat, intrav. admin.” value is listed as 110 mg/kg. Also, the “LD50, rat, oral admin.” value in data set [3] (oral) stood at 5510.0 mg/kg.

Turning to `CN(C)Cc1ccc(CSCCNC(=C[N+](=O)[O-])N2CCCCCC2)o1` [AU/013, 1-N-[2-[[5-[(dimethylamino)methyl]furfuryl]thio]ethyl]-amino-1-hexamethyleneimino-2-nitroethene], the LD50 at 240 h stood at 300 mg/kg in data set [1] (setting [5]); 90 mg/kg in data set [1] (setting [6]); 2700 mg/kg in data set [1] (setting [7]); 2100 mg/kg in data set [2] (setting [8]); 100 mg/kg in data set [2] (setting [9]); 5530 mg/kg in data set [2] (setting [10]).

Consider `CN(C)Cc1ccc(CSCCNC(=C[N+](=O)[O-])NN2CCCCCC2)o1` [AU/014, N-[2-[[5-[(dimethylamino)methyl]furfuryl]thio]ethyl]-N'-(hexamethyleneimino)-2-nitro-1,1-ethenediamine], for which the median lethal dose (LD50) at 240 h in data set [1] (setting [5]) amounted to 300 mg/kg; in data set [1] (setting [6]), 90 mg/kg; in data set [1] (setting [7]), 2600 mg/kg; in data set [2] (setting [8]) it was 2200 mg/kg; in data set [2] (setting [9]) it was 100 mg/kg.

With `CN(C)Cc1ccc(CSCCNC(=C[N+](=O)[O-])NC2CCCCCC2)o1` [AU/015, N-[2-[[5-[(dimethylamino)methyl]furfuryl]thio]ethyl]-N'-cycloheptyl-2-nitro-1,1-ethenediamine], the median lethal dose (LD50) at 240 h in data set [1] (setting [5]) came out at 300 mg/kg; in data set [1] (setting [6]), 100 mg/kg; in data set [1] (setting [7]), 2800 mg/kg; in data set [2] (setting [8]) it was 2200 mg/kg; in data set [2] (setting [9]), 100 mg/kg.

For the compound `CN(C)Cc1ccc(CSCCNC(=C[N+](=O)[O-])NC2CCCC2)o1` [AU/016, N-[2-[[5-[(dimethylamino)methyl]furfuryl]thio]ethyl]-N'-cyclopentyl-2-nitro-1,1-ethenediamine], the median lethal dose (LD50) at 240 h in data set [1] (setting [5]) amounted to 300 mg/kg; in data set [1] (setting [6]), 90 mg/kg; in data set [1] (setting [7]) it was 2700 mg/kg; in data set [2] (setting [8]), 2200 mg/kg; in data set [2] (setting [9]), 100 mg/kg.

Regarding `CN(C)Cc1ccc(CSCCNC(=C[N+](=O)[O-])N2CCCC2)o1` [AU/017, 1-N-[2-[[5-[(dimethylamino)methyl]furfuryl]thio]ethyl]-amino-1-pyrrolidino-2-nitroethene], the median lethal dose (LD50) at 240 h in data set [1] (setting [5]) turned out to be 300 mg/kg; in data set [1] (setting [6]), 100 mg/kg; in data set [1] (setting [7]), 2600 mg/kg; in data set [2] (setting [8]), 2200 mg/kg; in data set [2] (setting [9]), 100 mg/kg.

Regarding `CN(C)Cc1ccc(CSCCNC(=C[N+](=O)[O-])N2CCOCC2)o1` [AU/018, 1-N-[2-[[5-[(dimethylamino)methyl]furfuryl]thio]ethyl]-amino-1-morpholino-2-nitroethene], the LD50 at 240 h in data set [1] (setting [5]) came to 350 mg/kg; in data set [1] (setting [6]) it was 90 mg/kg; in data set [1] (setting [7]), 2700 mg/kg; in data set [2] (setting [8]) it was 2200 mg/kg; in data set [2] (setting [9]), 100 mg/kg.

Regarding `CN(C)Cc1ccc(CSCCNC(=C[N+](=O)[O-])NC2CC3C=CC2C3)o1` (stereo not drawn) [AU/020], the 50% lethal dose (LD50) at 240 h worked out at 300 mg/kg in data set [1] (setting [5]); 110 mg/kg in data set [1] (setting [6]); 2700 mg/kg in data set [1] (setting [7]); 2100 mg/kg in data set [2] (setting [8]); 110 mg/kg in data set [2] (setting [9]).

For `CN/C(=N/CCSCc1nc[nH]c1C)NC#N` [cimetidine], the “Inhibition of incidence of gastric ulcers induced by ligature of the pylorus” value in data set [4] was “significantly inhibit the incidence of gastric ulcers”.

Regarding `CNC(=C[N+](=O)[O-])NCCSCc1ccc(CN(C)C)o1` [ranitidine], the “Inhibition of incidence of gastric ulcers induced by ligature of the pylorus” value in data set [4] was “significantly inhibit the incidence of gastric ulcers”.

Turning to “N-[2-[[5-[(dimethylamino)methyl]furfuryl]thio]ethyl]-N'-(1,4-cyclohexadienyl-2-ethyl)-2-nitro-1,1-ethenediamine [AU/012]”, in the data set on mice of Swiss stock, the “LD50, mouse, intram. admin.” value was found to be 300 mg/kg; the “LD50, mouse, intrav. admin.” value was 90 mg/kg; the “LD50, mouse, oral admin.” value is 2800 mg/kg. In data set [3], the “LD50, rat, intram. admin.” value amounted to 2100 mg/kg and the “LD50, rat, intrav. admin.” value amounted to 110 mg/kg.
